Experiments:
Experiment in all cases: Kinase selectivity screen
[1] = target: INSR (Homo sapiens, UniProt P06213); conditions: read-out: % Inhibition INSR
[2] = target: ULK2 (Homo sapiens, UniProt Q8IYT8); conditions: read-out: % Inhibition ULK2
[3] = target: PRKCA (Homo sapiens, UniProt P17252); conditions: read-out: % Inhibition PRKCA
[4] = target: FGFR2 (Homo sapiens, UniProt P21802); conditions: read-out: % Inhibition FGFR2
[5] = target: NUAK1 (Homo sapiens, UniProt O60285); conditions: read-out: % Inhibition NUAK1
[6] = target: PIP5K1C (Homo sapiens, UniProt O60331); conditions: read-out: % Inhibition PIP5K1C
[7] = target: MARK2 (Homo sapiens, UniProt Q7KZI7); conditions: read-out: % Inhibition MARK2
[8] = target: PRKAA2 (Homo sapiens, UniProt P54646); conditions: read-out: % Inhibition PRKAA2
[9] = target: MAP2K1 (Homo sapiens, UniProt Q02750); conditions: read-out: % Inhibition MAP2K1
[10] = target: MAP3K7 (Homo sapiens, UniProt O43318); conditions: read-out: % Inhibition MAP3K7
[11] = target: FER (Homo sapiens, UniProt P16591); conditions: read-out: % Inhibition FER
[12] = target: PAK1 (Homo sapiens, UniProt Q13153); conditions: read-out: % Inhibition PAK1
[13] = target: PDGFRB (Homo sapiens, UniProt P09619); conditions: read-out: % Inhibition PDGFRB
[14] = target: NEK2 (Homo sapiens, UniProt P51955); conditions: read-out: % Inhibition NEK2
[15] = target: SRC (Homo sapiens, UniProt P12931); conditions: read-out: % Inhibition SRC
[16] = target: PRKACA (Homo sapiens, UniProt P17612); conditions: read-out: % Inhibition PRKACA
[17] = target: PAK2 (Homo sapiens, UniProt Q13177); conditions: read-out: % Inhibition PAK2

Sequence of PDGFRB (P09619 33-1106, species assumed): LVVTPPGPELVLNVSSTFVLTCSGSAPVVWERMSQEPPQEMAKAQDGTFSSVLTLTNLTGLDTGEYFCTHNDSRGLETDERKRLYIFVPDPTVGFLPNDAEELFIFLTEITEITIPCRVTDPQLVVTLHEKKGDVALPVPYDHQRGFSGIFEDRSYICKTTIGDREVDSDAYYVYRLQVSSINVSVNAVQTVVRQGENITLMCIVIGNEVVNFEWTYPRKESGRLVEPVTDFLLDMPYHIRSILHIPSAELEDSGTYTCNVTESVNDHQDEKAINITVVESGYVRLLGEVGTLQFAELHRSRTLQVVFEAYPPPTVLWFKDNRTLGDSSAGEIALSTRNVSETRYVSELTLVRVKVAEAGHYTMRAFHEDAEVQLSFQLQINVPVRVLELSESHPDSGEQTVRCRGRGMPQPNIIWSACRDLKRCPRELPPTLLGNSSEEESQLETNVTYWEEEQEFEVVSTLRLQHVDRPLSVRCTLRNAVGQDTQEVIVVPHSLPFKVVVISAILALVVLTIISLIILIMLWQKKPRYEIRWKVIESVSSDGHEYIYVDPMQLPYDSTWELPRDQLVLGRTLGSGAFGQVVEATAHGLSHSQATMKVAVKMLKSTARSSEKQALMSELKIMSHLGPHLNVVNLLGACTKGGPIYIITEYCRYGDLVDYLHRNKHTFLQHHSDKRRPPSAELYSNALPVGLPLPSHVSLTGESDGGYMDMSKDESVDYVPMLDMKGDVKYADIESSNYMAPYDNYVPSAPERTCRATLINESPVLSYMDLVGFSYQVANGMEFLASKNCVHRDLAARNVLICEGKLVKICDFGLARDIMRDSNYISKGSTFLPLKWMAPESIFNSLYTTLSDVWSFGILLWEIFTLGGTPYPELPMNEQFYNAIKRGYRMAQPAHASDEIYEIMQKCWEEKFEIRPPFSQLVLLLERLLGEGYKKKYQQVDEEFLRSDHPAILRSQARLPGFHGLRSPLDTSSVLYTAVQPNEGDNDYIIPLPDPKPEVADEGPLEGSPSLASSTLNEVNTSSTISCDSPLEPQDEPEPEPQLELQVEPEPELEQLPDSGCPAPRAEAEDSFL
Sequence of MAP3K7 (O43318 1-303 limits assumed, species assumed): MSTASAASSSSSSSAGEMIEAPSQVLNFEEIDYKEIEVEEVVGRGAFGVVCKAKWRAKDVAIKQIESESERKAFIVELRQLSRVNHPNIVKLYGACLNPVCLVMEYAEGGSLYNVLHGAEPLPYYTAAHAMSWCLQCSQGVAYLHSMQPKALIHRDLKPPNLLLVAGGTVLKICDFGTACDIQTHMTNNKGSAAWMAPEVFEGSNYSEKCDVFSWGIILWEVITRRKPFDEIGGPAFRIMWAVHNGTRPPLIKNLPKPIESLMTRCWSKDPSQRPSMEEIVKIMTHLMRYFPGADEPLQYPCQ
Sequence of MAP3K7 (Q15750 437-504 partner limits assumed, species assumed): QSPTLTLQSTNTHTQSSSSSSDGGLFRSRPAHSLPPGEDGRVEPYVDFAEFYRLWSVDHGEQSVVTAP
Sequence of NUAK1 (O60285 whole entry, species assumed): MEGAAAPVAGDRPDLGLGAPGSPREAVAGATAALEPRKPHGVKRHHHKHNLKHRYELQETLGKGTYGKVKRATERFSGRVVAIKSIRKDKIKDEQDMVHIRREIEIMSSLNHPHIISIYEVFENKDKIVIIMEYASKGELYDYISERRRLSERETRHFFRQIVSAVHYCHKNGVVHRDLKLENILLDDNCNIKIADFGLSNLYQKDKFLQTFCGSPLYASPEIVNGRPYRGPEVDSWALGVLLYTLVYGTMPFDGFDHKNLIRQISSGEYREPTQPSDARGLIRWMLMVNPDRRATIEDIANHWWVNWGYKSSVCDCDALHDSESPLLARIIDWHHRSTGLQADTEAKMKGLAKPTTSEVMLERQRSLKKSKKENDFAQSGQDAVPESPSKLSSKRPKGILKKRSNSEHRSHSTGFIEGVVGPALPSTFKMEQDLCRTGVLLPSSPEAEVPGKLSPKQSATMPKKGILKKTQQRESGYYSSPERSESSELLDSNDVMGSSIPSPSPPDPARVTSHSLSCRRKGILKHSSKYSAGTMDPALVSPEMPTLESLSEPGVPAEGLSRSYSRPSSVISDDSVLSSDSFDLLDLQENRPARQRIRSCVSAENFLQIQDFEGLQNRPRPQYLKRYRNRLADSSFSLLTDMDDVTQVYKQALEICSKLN
Sequence of PRKAA2 (P54646 whole entry, species assumed): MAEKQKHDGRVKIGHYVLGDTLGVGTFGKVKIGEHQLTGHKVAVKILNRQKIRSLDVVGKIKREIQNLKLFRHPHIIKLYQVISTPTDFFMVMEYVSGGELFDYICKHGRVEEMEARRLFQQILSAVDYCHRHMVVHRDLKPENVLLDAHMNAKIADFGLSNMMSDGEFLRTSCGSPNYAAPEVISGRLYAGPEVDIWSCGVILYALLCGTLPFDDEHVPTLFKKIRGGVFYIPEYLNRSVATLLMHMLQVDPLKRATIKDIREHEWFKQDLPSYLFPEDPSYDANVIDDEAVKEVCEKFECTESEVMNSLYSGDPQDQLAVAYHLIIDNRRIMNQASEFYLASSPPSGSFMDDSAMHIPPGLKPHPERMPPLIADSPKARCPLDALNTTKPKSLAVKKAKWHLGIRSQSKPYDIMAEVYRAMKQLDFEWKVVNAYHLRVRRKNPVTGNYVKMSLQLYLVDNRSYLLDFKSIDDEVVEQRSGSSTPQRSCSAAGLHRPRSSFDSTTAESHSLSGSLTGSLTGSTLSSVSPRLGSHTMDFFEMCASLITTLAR
Sequence of PRKAA2 (Q9Y478 whole entry partner, species assumed): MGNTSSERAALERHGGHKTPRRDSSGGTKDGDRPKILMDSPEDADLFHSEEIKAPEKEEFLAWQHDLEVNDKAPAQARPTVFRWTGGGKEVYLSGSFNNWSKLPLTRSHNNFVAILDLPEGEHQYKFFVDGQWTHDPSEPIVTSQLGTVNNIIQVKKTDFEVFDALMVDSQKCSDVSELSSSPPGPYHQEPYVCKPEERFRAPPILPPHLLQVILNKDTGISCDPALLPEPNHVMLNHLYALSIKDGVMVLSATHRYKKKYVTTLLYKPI
Sequence of PRKAA2 (P54619 whole entry partner, species assumed): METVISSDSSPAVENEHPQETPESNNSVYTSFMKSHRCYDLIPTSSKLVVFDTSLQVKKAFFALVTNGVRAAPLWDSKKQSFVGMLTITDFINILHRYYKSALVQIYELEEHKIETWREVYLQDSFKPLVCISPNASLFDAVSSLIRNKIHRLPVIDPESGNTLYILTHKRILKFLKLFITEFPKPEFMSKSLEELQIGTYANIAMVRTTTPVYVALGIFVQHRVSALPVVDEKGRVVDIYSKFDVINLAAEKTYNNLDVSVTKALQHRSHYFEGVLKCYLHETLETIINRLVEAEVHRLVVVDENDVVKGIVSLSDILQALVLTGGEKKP
Sequence of SRC (P12931 whole entry, species assumed): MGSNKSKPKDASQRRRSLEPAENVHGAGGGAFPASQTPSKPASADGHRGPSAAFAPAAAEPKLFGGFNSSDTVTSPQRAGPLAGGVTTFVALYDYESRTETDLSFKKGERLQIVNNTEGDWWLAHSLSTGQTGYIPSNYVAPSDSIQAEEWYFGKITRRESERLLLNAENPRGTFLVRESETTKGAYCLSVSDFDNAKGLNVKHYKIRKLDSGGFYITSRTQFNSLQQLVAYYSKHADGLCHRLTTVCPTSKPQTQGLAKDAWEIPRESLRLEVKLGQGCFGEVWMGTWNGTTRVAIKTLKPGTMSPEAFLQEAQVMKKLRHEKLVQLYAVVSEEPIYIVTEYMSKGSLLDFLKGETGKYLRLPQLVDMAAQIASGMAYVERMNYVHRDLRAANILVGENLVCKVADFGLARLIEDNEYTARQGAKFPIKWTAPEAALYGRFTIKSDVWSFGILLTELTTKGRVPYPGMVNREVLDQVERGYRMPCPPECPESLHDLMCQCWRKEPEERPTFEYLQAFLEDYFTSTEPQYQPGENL
Sequence of NEK2 (P51955 whole entry, species assumed): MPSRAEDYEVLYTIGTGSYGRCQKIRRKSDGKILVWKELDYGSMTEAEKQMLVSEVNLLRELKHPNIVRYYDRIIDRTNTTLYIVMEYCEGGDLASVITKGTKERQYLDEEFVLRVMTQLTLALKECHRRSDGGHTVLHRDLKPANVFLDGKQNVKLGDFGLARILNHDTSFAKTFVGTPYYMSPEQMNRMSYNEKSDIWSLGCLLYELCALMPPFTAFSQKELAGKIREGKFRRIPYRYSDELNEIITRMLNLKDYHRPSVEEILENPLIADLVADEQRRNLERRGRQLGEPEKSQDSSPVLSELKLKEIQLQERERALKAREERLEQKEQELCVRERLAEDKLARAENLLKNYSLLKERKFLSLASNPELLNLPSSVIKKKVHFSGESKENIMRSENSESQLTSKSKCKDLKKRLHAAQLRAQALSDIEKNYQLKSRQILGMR

CC(C)Oc1cc(F)ccc1Nc1ncnc2cc(C(=O)NCCCN(C)C)n(C)c12 [Example 40, N-[3-(dimethylamino)propyl]-4-{[4-fluoro-2-(propan-2-yloxy)phenyl]amino}-5-methyl-5H-pyrrolo[3,2-d]pyrimidine-6-carboxamide]
inhibition at 1 µM [1]: 0%
inhibition at 1 µM [2]: 0%
inhibition at 1 µM [3]: 5%
inhibition at 1 µM [4]: 0%
inhibition at 1 µM [5]: 0%
inhibition at 1 µM [6]: 6%
inhibition at 1 µM [7]: 0%
inhibition at 1 µM [8]: 0%
inhibition at 1 µM [9]: 0%
inhibition at 1 µM [10]: 5%
inhibition at 1 µM [11]: 0%
inhibition at 1 µM [12]: 0%
inhibition at 1 µM [13]: 5%
inhibition at 1 µM [14]: 0%
inhibition at 1 µM [15]: 0%
inhibition at 1 µM [16]: 0%
inhibition at 1 µM [17]: 0%

Reference: patent publication US10604524B2, “Pyrropyrimidine compounds as MNKs inhibitors” (LIFEARC, priority 2015, dated 2020)
